Source: patent US20250009747A1, “ENDOTHELIN RECEPTOR ANTAGONISTS FOR USE IN TREATING OR PREVENTING MUSCLE FIBROSIS” (ASSOCIATION INSTITUT DE MYOLOGIE, priority 2021, published 2025)
“Also recorded” adds a separate entry of the source. Square brackets hold non-standard residues; d marks the D form. Peptide text beside a SMILES is read from it.

Tests used:
Type in all cases: cell-based, human
[1] = system: myoblast cocultured with FAPs from FibM^OP; assay: Coculture of myoblasts with FAPs from fibrotic muscle, fusion index; conditions: Bosentan 10 μM added at day 0 and day 3, fixed at day 5, myoblasts/FAPs 70%/30%
Procedure: Non-myogenic (CD56-) and myogenic (CD56+) cells were seeded together at a 30%/70% ratio and at a final confluence of 21000 cells/cm2. Once the cells have adhered, the medium was replaced by a differentiation medium composed by DMEM with 50 μg/mL gentamycin. To study the effect of Bosentan on the fusion index in coculture 10 μM of Bosentan (SML1265, Sigma Aldrich) was added to the wells at day 0 and day 3. Cells were fixed at day 5 in 4% paraformaldehyde (PFA). The fusion index was calculated as the ratio between the number of nuclei per myotube (>2 nuclei) identified by a desmin staining and the total number of desmin+nuclei. Immunostaining were performed on cells fixed in 4% PFA for 10 minutes (min) and incubated with blocking solution (PBS 2% FBS 0.2% Triton) for 30 minutes (min). Fixed cells were then incubated 1 h with primary antibodies (COL7A1 […] Sigma Aldrich 1/800; Desmin […] Dako 1/50). Detection of immune complexes was performed using the appropriate Alexa-Fluor-secondary antibodies purchased from Life Technologies (Grand Island, NY) for 45 min. Nuclei and actin filament were counterstained with Hoechst and Phalloidin-Alexa 568 (Interchim 1/400) respectively.

[2] = system: FAPs from M^CT, FibM^CT and FibM^OP; assay: Edu proliferation of FAPs treated with ET-1 +/- antagonist; conditions: 3 days
Source text: (§1) Human FAPs cells were isolated from muscle biopsies obtained during surgical procedures via Myobank, affiliated to EuroBioBank, after informed consent in accordance with European recommendations and French legislation (authorization AC-2019-3502). Human FAPs isolated here as the CD56 negative cell fraction (Périé, S. et al. 2006), are obtained from control skeletal muscle: M^CT, control fibrotic cricopharyngeal muscle (CPM): FibM^CT, OPMD fibrotic CPM with exacerbated levels of fibrosis: FibM^OP, and fibrotic muscle from inclusion body myositis patients: FibM^IBM. All tested fibrotic muscle are skeletal fibrotic muscle. These cells expressed predominantly PDGFRa, CD90 and CD105 known markers of Fibro/Adipogenic Progenitors (FAPs) in human skeletal muscle. The tissue type, cell type, age, pathological condition and muscle fibrotic state of each biopsy sample are specified in table below.
The muscle biopsies were finely minced and explants were plated onto non-coated Petri dishes in drops of fetal bovine serum (FBS) (Invitrogen, Carlsbad, CA) as previously described (Bigot et al., 2009). Cells were cultivated at 37° C. in a humid atmosphere containing 5% CO2 and in growth medium consisting of 199 medium (Life technologies, Paisley, UK) and Dulbecco's Modified Eagle Medium (DMEM, Life technologies) in a 1:4 ratio supplemented with 20% Fetal Bovine Serum (FBS, Invitrogen), 25 μg/ml fetuin (Life technologies), 0.5 ng/mL bFGF (Life technologies), 5 ng/ml EGF (Life technologies), 5 μg/mL insulin (Sigma-Aldrich) and 50 μg/mL gentamycin (Life Technologies). […] The myogenic purity of both cell fractions (CD56+, myogenic and CD56−, non-myogenic) was monitored by immunocytochemistry using an antibody against desmin (clone D33, Dako, Trappes, France), exclusively expressed in myogenic cells.
The method for quantification of ET-1 protein is described in Le Bihan et al. 2012. […]

[3] = system: FAPs from M^CT, FibM^CT and FibM^OP; assay: COL7A1 immunostaining as a readout of ECM production in FAPs treated with ET-1 +/- antagonist; conditions: 3 days
Source text: as §1
The muscle biopsies were finely minced and explants were plated onto non-coated Petri dishes in drops of fetal bovine serum (FBS) (Invitrogen, Carlsbad, CA) as previously described (Bigot et al., 2009). Cells were cultivated at 37° C. in a humid atmosphere containing 5% CO2 and in growth medium consisting of 199 medium (Life technologies, Paisley, UK) and Dulbecco's Modified Eagle Medium (DMEM, Life technologies) in a 1:4 ratio supplemented with 20% Fetal Bovine Serum (FBS, Invitrogen), 25 μg/ml fetuin (Life technologies), 0.5 ng/mL bFGF (Life technologies), 5 ng/ml EGF (Life technologies), 5 μg/mL insulin (Sigma-Aldrich) and 50 μg/mL gentamycin (Life Technologies). Cells were labelled with CD56 antibody coupled to microbeads (130-050-401, MACS; Miltenyi Biotec, Paris, France) and then separated using a immunomagnetic cell sorting system (MACS) according to the manufacturer's instructions. The myogenic purity of both cell fractions (CD56+, myogenic and CD56−, non-myogenic) was monitored by immunocytochemistry using an antibody against desmin (clone D33, Dako, Trappes, France), exclusively expressed in myogenic cells.
The method for quantification of ET-1 protein is described in Le Bihan et al. 2012. Treatment of FAPs to evaluate the effect of ET-1 was performed on 70-80% confluence cells that were rinsed twice with DMEM and treated 3 days with proliferation medium at 1% FBS (instead of 20%) containing either DMSO or 40 nM ET-1 (E7764, Sigma-Aldrich)+/−10 μM Bosentan (SML1265, Sigma Aldrich), 10 nM BQ788 (SML192621, Sigma Aldrich), or 10 nM BQ123 (B150, Sigma-Aldrich). For proliferation experiment, Edu (10 μM) was added at day 2 and cells were fixed 24 h later. EdU labeling was carried out using the Click-iT™ EdU Cell Proliferation Kit (C10338, Life Technologies) according to the manufacturer's instructions. […]

COc1ccccc1Oc1c(NS(=O)(=O)c2ccc(C(C)(C)C)cc2)nc(-c2ncccn2)nc1OCCO [Bosentan]
fusion index [1]: partially restored to control levels
proliferation (percentage of Edu positive cells) ([2]; ET-1 40 nM + Bosentan 10 μM): partially abolished the effect of ET1; also recorded: decrease of proliferation
ECM production (percentage of COL7A1 positive cells) ([3]; ET-1 40 nM + Bosentan 10 μM): partially abolished the effect of ET1

CCCC[C@@H](NC(=O)[C@@H](Cc1cn(C(=O)OC)c2ccccc12)NC(=O)[C@H](CC(C)(C)C)NC(=O)N1[C@H](C)CCC[C@@H]1C)C(=O)O [BQ788]
proliferation (percentage of Edu positive cells) ([2]; ET-1 40 nM + BQ788 10 nM): decrease of proliferation
ECM production (percentage of COL7A1 positive cells) ([3]; ET-1 40 nM + antagonist 10 nM): decrease of ECM production

CC(C)C[C@@H]1NC(=O)[C@@H](C(C)C)NC(=O)[C@@H]2CCCN2C(=O)[C@@H](CC(=O)O)NC(=O)[C@@H](Cc2c[nH]c3ccccc23)NC1=O [BQ123] (cyclo(L[dW][dD]P[dV]))
ECM production (percentage of COL7A1 positive cells) ([3]; ET-1 40 nM + antagonist 10 nM): decrease of ECM production

CC[C@H](C)[C@H](NC(=O)[C@H](CC(=O)O)NC(=O)[C@H](CC(C)C)NC(=O)[C@H](Cc1c[nH]cn1)NC(=O)[C@@H]1CSSC[C@H](N)C(=O)N[C@@H](CO)C(=O)N[C@H]2CSSC[C@H](NC(=O)[C@H](CCC(=O)O)NC(=O)[C@H](CCCCN)NC(=O)[C@H](CC(=O)O)NC(=O)[C@H](CCSC)NC(=O)[C@H](CC(C)C)NC(=O)[C@H](CO)NC(=O)[C@H](CO)NC2=O)C(=O)N[C@@H](C(C)C)C(=O)N[C@@H](Cc2ccc(O)cc2)C(=O)N[C@@H](Cc2ccccc2)C(=O)N1)C(=O)N[C@H](C(=O)N[C@@H](Cc1c[nH]c2ccccc12)C(=O)O)[C@@H](C)CC [ET1]
proliferation (percentage of Edu positive cells) ([2]; ET-1 40 nM, vs DMSO): increased
ECM production (percentage of COL7A1 positive cells) ([3]; ET-1 40 nM, vs DMSO): increased
